Test results reported in patent US20260250320A1, “LIPIDATED PEPTIDE INHIBITORS OF INTERLEUKIN-23 RECEPTOR” (Janssen Pharmaceutica NV, priority 2023, published 2026).
*1 amine or outer side, *2 acyl side, *3 side chain or, on linkers, in order; H or OH if unused. Where a SMILES comes first, the peptide text is derived from it. Bridges are numbered along the chain shown (N, C = ends). Side-chain parts run from the residue outwards. [ ]: non-standard residue; d: D form. The star is where a group is joined. Me3N+(CH2)2O(CH2)2O(CH2)2CO = C[N+](C)(C)CCOCCOCCC(=O)*; CH2CH2OCH2CH2OCH2CH2NMe3+ = C[N+](C)(C)CCOCCOCC*; Trp(7-Me) = Cc1cccc2c(C[C@H](N)C(=O)O)c[nH]c12; C18 diacid = O=C(O)CCCCCCCCCCCCCCCCC(=O)*; γGlu = O=C(O)[C@H](CCC(=O)[*:2])N[*:1]; 2Nal = N[C@@H](Cc1ccc2ccccc2c1)C(=O)O; AEF = NCCOc1ccc(C[C@H](N)C(=O)O)cc1; X2 = C[N+](C)(C)C[C@@H](CC(=O)O)N*; 3Pal = N[C@@H](Cc1cccnc1)C(=O)O; Lys(Me) = CNCCCC[C@H](N)C(=O)O; Pen = CC(C)(S)[C@H](N)C(=O)O; Suc = O=C(CCC(=O)[*:2])[*:1]; Thp = NC1(C(=O)O)CCOCC1; X1 = C[N+](C)(C)CCCCC*; AEEA = NCCOCCOCC(=O)O; Sar = CNCC(=O)O

How the values were obtained:
IL-23R = target: T1, IL-23R (Homo sapiens, UniProt Q5VWK5); test: IL23R Reporter Assay; format: cell-based; settings: HEK293 cells containing IL-23R, IL-12Rβ1 and STAT-inducible firefly luciferase reporter; 10 ng/mL IL-23 (EC90); 5 h
T1 construct: HEK293 cells containing IL-23R, IL-12Rβ1 and a firefly luciferase reporter gene driven by a STAT-inducible promoter (Promega); host or cells: HEK293
T1 sequence (Q5VWK5 24-629): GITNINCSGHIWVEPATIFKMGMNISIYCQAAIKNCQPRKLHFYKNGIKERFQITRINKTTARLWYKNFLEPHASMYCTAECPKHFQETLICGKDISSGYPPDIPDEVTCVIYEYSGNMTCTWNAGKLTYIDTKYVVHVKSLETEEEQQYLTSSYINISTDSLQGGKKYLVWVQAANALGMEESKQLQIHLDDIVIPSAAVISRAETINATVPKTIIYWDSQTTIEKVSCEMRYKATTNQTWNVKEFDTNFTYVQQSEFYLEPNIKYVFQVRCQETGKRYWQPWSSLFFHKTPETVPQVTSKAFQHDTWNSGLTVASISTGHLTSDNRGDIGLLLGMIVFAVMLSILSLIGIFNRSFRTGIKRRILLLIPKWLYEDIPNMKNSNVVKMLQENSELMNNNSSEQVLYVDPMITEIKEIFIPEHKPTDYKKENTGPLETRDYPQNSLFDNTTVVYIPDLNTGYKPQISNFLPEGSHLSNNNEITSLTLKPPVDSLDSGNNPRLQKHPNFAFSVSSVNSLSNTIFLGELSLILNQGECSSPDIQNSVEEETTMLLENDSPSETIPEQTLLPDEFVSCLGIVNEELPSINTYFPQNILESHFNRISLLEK
Outline: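 HEK293 cells carrying IL-23R, IL-12Rβ1 and a STAT-driven firefly luciferase reporter (4000 cells/well) received compound, then 10 ng/mL IL-23 solution (EC90), and were incubated for 5 h at 37° C. BioGlo luminescence was normalised to IL-23 alone (0%) and 30 μM control inhibitor (100%). IC50 came from a 4-parameter Hill fit.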

[1] = system: IL-23-stimulated phosphorylated STAT3 in peripheral blood mononuclear cells (PBMCs); test: PBMC pSTAT3 Assay; format: cell-based; settings: PBMCs from healthy donors; 30 min preincubation with peptide; IL-23 5 ng/mL for 30 min; phospho-STAT3 by MSD
Outline: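 Healthy-donor PBMCs expanded 4 days on anti-CD3 with 100 ng/mL IL-1β, starved ~4 h in RPMI-0.1% BSA, preincubated 30 min with peptide, then stimulated 30 min at 37 °C with 5 ng/mL IL-23. Lysate pSTAT3 measured by MSD phospho-STAT panel; IC50 derived.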

`CC(=O)NCCCC[C@@H]1NC(=O)[C@H](Cc2c[nH]c3c(C)cccc23)NC(=O)[C@H]([C@@H](C)O)NC(=O)[C@H](CC(N)=O)NC(=O)[C@@H](NC(=O)[C@@H](CCCNC(=N)N)NC(C)=O)C(C)(C)SSC(C)(C)[C@@H](C(=O)N[C@@H](Cc2ccc(OCCN)cc2)C(=O)N[C@@H](Cc2ccc3ccccc3c2)C(=O)NC2(C(=O)N[C@@H](CCCCNC(=O)CCC(=O)N[C@H](CC(=O)O)C[N+](C)(C)C)C(=O)N[C@@H](CC(N)=O)C(=O)N[C@@H](Cc3cccnc3)C(=O)N(C)CC(=O)N[C@@H](CCCCNC(=O)COCCOCCNC(=O)COCCOCCNC(=O)CC[C@H](NC(=O)CCCCCCCCCCCCCCCCC(=O)O)C(=O)O)C(N)=O)CCOCC2)NC1=O` [compound 51, MeCO-r-Pen(3)-N-T-7MeW-K(Ac)-Pen(3)-AEF-2Nal-THP-K(d)-N-3Pya-Sar-K(PEG2PEG2gEC18OH)-CONH2] (Ac-[dR][Pen]NT[Trp(7-Me)]K(Ac)[Pen][AEF][2Nal][Thp]K([Suc-X2])N[3Pal][Sar]K([AEEA-AEEA-γGlu-C18 diacid])-NH2; disulfide 2-7) was tested. Which IC50 (IL-23R) did it give?
The IC50 was ≥ 500 nM.

And the IC50 [1]?
The IC50 was < 0.5 nM.

`CC(=O)N[C@H](CCCNC(=N)N)C(=O)N[C@@H]1C(=O)N[C@@H](CC(N)=O)C(=O)N[C@@H]([C@@H](C)O)C(=O)N[C@@H](Cc2c[nH]c3c(C)cccc23)C(=O)N[C@@H](CCCCNC(=O)COCCOCCNC(=O)COCCOCCNC(=O)CC[C@H](NC(=O)CCCCCCCCCCCCCCCCC(=O)O)C(=O)O)C(=O)N[C@H](C(=O)N[C@@H](Cc2ccc(OCCNC(=O)CCC(=O)N[C@H](CC(=O)O)C[N+](C)(C)C)cc2)C(=O)N[C@@H](Cc2ccc3ccccc3c2)C(=O)NC2(C(=O)N[C@@H](CCC(=O)O)C(=O)N[C@@H](CC(N)=O)C(=O)N[C@@H](Cc3cccnc3)C(=O)N(C)CC(N)=O)CCOCC2)C(C)(C)SSC1(C)C` [compound 36, MeCO-r-Pen(3)-N-T-7MeW-K(PEG2PEG2gEC18OH)-Pen(3)-AEF(d)-2Nal-THP-E-N-3Pya-Sar-CONH2] (Ac-[dR][Pen]NT[Trp(7-Me)]K([AEEA-AEEA-γGlu-C18 diacid])[Pen][AEF]([Suc-X2])[2Nal][Thp]EN[3Pal][Sar]-NH2; disulfide 2-7) was tested. Which IC50 (IL-23R) did it give?
The IC50 was 50 to 500 nM.

And the IC50 [1]?
Its IC50 is < 0.5 nM.

Which results are given for `CC(=O)N(C)CCCC[C@@H]1NC(=O)[C@H](Cc2c[nH]c3c(C)cccc23)NC(=O)[C@H]([C@@H](C)O)NC(=O)[C@H](CC(=O)N(C)C)NC(=O)[C@@H](N)C(C)(C)SSC(C)(C)[C@@H](C(=O)N[C@@H](Cc2ccc(OCCOCCOCC[N+](C)(C)C)cc2)C(=O)N[C@@H](Cc2ccc3ccccc3c2)C(=O)NC2(C(=O)N[C@@H](CCCCN(C)C(C)=O)C(=O)N[C@@H](CC(N)=O)C(=O)N[C@@H](Cc3cccnc3)C(=O)N(C)CC(=O)N[C@@H](CCCCNC(=O)COCCOCCNC(=O)COCCOCCNC(=O)CC[C@H](NC(=O)CCCCCCCCCCCCCCCCC(=O)O)C(=O)O)C(=O)N(C)C)CCOCC2)NC1=O` [compound 148, cPEG3aCO-Pen(3)-N(N(Me)2)-T-7MeW-K(NMeAc)-Pen(3)-APEC3F-2Nal-THP-K(NMeAc)-N-3Pya-Sar-K(PEG2PEG2gEC18OH)-CON(Me)2] (H-[Pen]D(NMe2)T[Trp(7-Me)][Lys(Me)](Ac)[Pen]Y(CH2CH2OCH2CH2OCH2CH2NMe3+)[2Nal][Thp][Lys(Me)](Ac)N[3Pal][Sar]K([AEEA-AEEA-γGlu-C18 diacid])-NMe2; disulfide 1-6)?
IC50 (IL-23R): 50 to 500 nM; IC50 [1]: < 0.5 nM

What does the source list for `CC(=O)N[C@@H]1C(=O)N[C@@H](CC(N)=O)C(=O)N[C@@H]([C@@H](C)O)C(=O)N[C@@H](Cc2c[nH]c3ccccc23)C(=O)N[C@@H](CCCCNC(=O)CCOCCOCCOCCOCCOCCOCCOCCOCCOCCOCCOCCOCCNC(=O)CC[C@H](NC(=O)CCCCCCCCCCCCCCCCC(=O)O)C(=O)O)C(=O)N[C@H](C(=O)N[C@@H](Cc2ccc(OCCN)cc2)C(=O)N[C@@H](Cc2ccc3ccccc3c2)C(=O)NC2(C(=O)N[C@@H](CCC(=O)O)C(=O)N[C@@H](CC(N)=O)C(=O)N[C@@H](Cc3cccnc3)C(=O)N(C)CC(N)=O)CCOCC2)C(C)(C)SSC1(C)C` [compound 96, MeCO-Pen(3)-N-T-7MeW-K(PEG12gEC18OH)-Pen(3)-AEF-2Nal-THP-E-N-3Pya-Sar-CONH2]?
IC50 (IL-23R): < 50 nM; IC50 [1]: < 0.5 nM

With `CC(=O)N[C@H](CCCNC(=N)N)C(=O)N[C@@H]1C(=O)N[C@@H](CC(N)=O)C(=O)N[C@@H]([C@@H](C)O)C(=O)N[C@@H](Cc2c[nH]c3c(C)cccc23)C(=O)N[C@@H](CCC(N)=O)C(=O)N[C@H](C(=O)N[C@@H](Cc2ccc(OCCN)cc2)C(=O)N[C@@H](Cc2ccc3ccccc3c2)C(=O)NC2(C(=O)N[C@@H](CCC(=O)O)C(=O)N[C@@H](CC(N)=O)C(=O)N[C@@H](Cc3cccnc3)C(=O)N(C)CC(=O)N[C@@H](CCCCNC(=O)COCCOCCNC(=O)COCCOCCNC(=O)CC[C@H](NC(=O)CCCCCCCCCCCCCCCCC(=O)O)C(=O)O)C(=O)O)CCOCC2)C(C)(C)SSC1(C)C` [compound 38, MeCO-r-Pen(3)-N-T-7MeW-Q-Pen(3)-AEF-2Nal-THP-E-N-3Pya-Sar-K(PEG2PEG2gEC18OH)-CONH2] (Ac-[dR][Pen]NT[Trp(7-Me)]Q[Pen][AEF][2Nal][Thp]EN[3Pal][Sar]K([AEEA-AEEA-γGlu-C18 diacid])-OH; disulfide 2-7) as the compound, how does the IC50 (IL-23R) read?
The IC50 was < 50 nM.

What about the IC50 [1] of the same compound?
Its IC50 is < 0.5 nM.

How did the IC50 (IL-23R) turn out when `C=C(N[C@@H](CC(N)=O)C(=O)N[C@@H](CC)C(C)N(C)CC(=O)N(C)C)[C@H](CCCCN(C)C(C)=O)NC(=O)C1(NC(=O)[C@H](Cc2ccc3ccccc3c2)NC(=O)[C@H](Cc2ccc(OCCCCC[N+](C)(C)C)cc2)NCC2NC(=O)[C@H](CCCCNC(=O)COCCOCCNC(=O)COCCOCCNC(=O)CC[C@H](NC(=O)CCCCCCCCCCCCCCCCCCC(=O)O)C(=O)O)NC(=O)[C@H](CC3=CCc4c(C)cccc43)NC(=O)[C@H]([C@@H](C)O)NC(=O)[C@H](CC(=O)N(C)C)NC(=O)[C@@H](NC(=O)CCOCCOCC[N+](C)(C)C)C(C)(C)SSC2(C)C)CCCCC1` (stereo partly drawn) [compound 127, cPEG3aCO-Pen(3)-N(N(Me)2)-T-7MeW-K(PEG2PEG2gEC20OH)-Pen(3)-TMAPF-2Nal-THP-K(NMeAc)-N-3Pya-Sar-CON(Me)2] was run?
Its IC50 is 50 to 500 nM.

What about the IC50 [1] of the same compound?
Its IC50 is 0.5 to 5 nM.

Which IC50 (IL-23R) does the source give for `CC(=O)N(C)CCCC[C@H](NC(=O)CNC(=O)[C@H](Cc1ccc2ccccc2c1)NC(=O)[C@H](Cc1ccc(OCCCCC[N+](C)(C)C)cc1)NC(=O)[C@H]1NC(=O)[C@H](CCCCNC(=O)COCCOCCNC(=O)COCCOCCNC(=O)CC[C@H](NC(=O)CCCCCCCCCCCCCCCCC(=O)O)C(=O)O)NC(=O)[C@H](Cc2c[nH]c3c(C)cccc23)NC(=O)[C@H]([C@@H](C)O)NC(=O)[C@H](CC(=O)N(C)C)NC(=O)[C@@H](NC(=O)CCOCCOCC[N+](C)(C)C)C(C)(C)SSC1(C)C)C(=O)N[C@@H](CC(N)=O)C(=O)N[C@@H](Cc1cccnc1)C(=O)N(C)CC(=O)N(C)C` [compound 157, cPEG3aCO-Pen(3)-N(N(Me)2)-T-7MeW-K(PEG2PEG2gEC18OH)-Pen(3)-APEG3F-2Nal-THP-K(NMeAc)-N-3Pya-Sar-CON(Me)2] ({Me3N+(CH2)2O(CH2)2O(CH2)2CO}-[Pen]D(NMe2)T[Trp(7-Me)]K([AEEA-AEEA-γGlu-C18 diacid])[Pen]Y(X1)[2Nal]G[Lys(Me)](Ac)N[3Pal][Sar]-NMe2; disulfide 1-6) here?
Its IC50 is 50 to 500 nM.

What about the IC50 [1] of the same compound?
The IC50 was 0.5 to 5 nM.
